In publication PMC3982398 (Biochemical pharmacology, 2009):
Read-outs that look alike come from different tables or passages of the source.

Tests used:
human hepatic microsomes [1] = tested on: human hepatic microsomes
[2] = compared with glyburide; ref [12], [13]; cited from earlier work
[3] = tested on: human placental microsomes
[4] = tested on: human placental microsomes; settings: sulfaphenazole 10 μM, lansoprazole 10 μM, troleandomycin 50 and 200 μM, quinidine 5 μM, 4-methylpyrazole 25 μM
[5] = cited from earlier work
human hepatic microsomes [6] = type: in vitro ADME; settings: ketoconazole 0.5 μM, troleandomycin 50 μM, sulfaphenazole 40 μM; for decrease in formation of M2a: lansoprazole 10 μM; for decrease in the aggregate (total) amount of metabolites formed: α-naphthoflavone 0.05 μM
CYP19 = settings: ref [27]; cited from earlier work

For `COc1ccc(Cl)cc1C(=O)NCCc1ccc(S(=O)(=O)NC(=O)N[C@H]2CCC[C@@H](O)C2)cc1` (relative stereo) [M2b, 3-cis-hydroxycyclohexyl glyburide], the “amount of metabolite formed as percent of the total metabolites” value (“amount … as percent of the total metabolites” for short) (human hepatic microsomes [1]) is given as 12%, the “potency in lowering the concentration of glucose” value [2] is given as “as potent as glyburide” and the “amount … as percent of the total metabolites” value [3] is given as 1%.

With `COc1ccc(Cl)cc1C(=O)NCCc1ccc(S(=O)(=O)NC(=O)N[C@@H]2CCCC[C@H]2O)cc1` (relative stereo) [M4, 2-trans-hydroxycyclohexyl glyburide] the “amount … as percent of the total metabolites” value (human hepatic microsomes [1]) was 4% and the “amount … as percent of the total metabolites” value [3] was 1%.

In the case of `C[C@]12CCC(=O)C(O)=C1CC[C@@H]1[C@@H]2CC[C@]2(C)C(=O)CC[C@@H]12` [4-hydroxyandrostenedione], the “decrease in M5 formation” value ([4]; 4-hydroxyandrostenedione 10 μM, α-naphthoflavone 0.05 μM) is reported as 87%.

In the case of `COc1ccc(Cl)cc1C(=O)NCCc1ccc(S(=O)(=O)NC(=O)N[C@H]2CC[C@H](O)CC2)cc1` [M1, 4-trans-hydroxycyclohexyl glyburide], the “potency in lowering the concentration of glucose” value [2] is given as “as potent as glyburide” and the “amount … as percent of the total metabolites” value [3] is given as 4%.

With `COc1ccc(Cl)cc1C(=O)NCCc1ccc(S(=O)(=O)NC(=O)N[C@H]2CC[C@@H](O)CC2)cc1` [M2a, 4-cis-hydroxycyclohexyl glyburide] the “amount … as percent of the total metabolites” value (human hepatic microsomes [1]) was 11% and the “amount … as percent of the total metabolites” value [3] was “negligible”.

For `COc1ccc(Cl)cc1C(=O)NCCc1ccc(S(=O)(=O)NC(=O)NC2CCCC(O)C2)cc1` (stereo not drawn) [M3, 3-trans-hydroxycyclohexyl glyburide], the “amount … as percent of the total metabolites” value (human hepatic microsomes [1]) was 6% and the “amount … as percent of the total metabolites” value [3] was 1%.

In the case of `COc1ccccc1Oc1c(NS(=O)(=O)c2ccc(C(C)(C)C)cc2)nc(-c2ncccn2)nc1OCCO` [bosentan], the “effect of administration on plasma levels of glyburide” value ([5]; ref [18]) is given as “lowered plasma levels of glyburide”.

For `CC(=O)N1CCN(c2ccc(OCC3COC(Cn4ccnc4)(c4ccc(Cl)cc4Cl)O3)cc2)CC1` (stereo not drawn) [ketoconazole], the “decrease in formation of M1” value (human hepatic microsomes [6]) was ≤ 20%, the “decrease in formation of M2b” value (human hepatic microsomes [6]) was ≤ 20% and the “decrease in formation of M3” value (human hepatic microsomes [6]) was ≥ 50%. The “decrease in formation of M4” value (human hepatic microsomes [6]) was ≥ 50%, the “decrease in formation of M5” value (human hepatic microsomes [6]) was 93% and the “decrease in formation of M2a” value (human hepatic microsomes [6]) was “approximately 40%”. The “decrease in the aggregate (total) amount of metabolites formed” value (human hepatic microsomes [6]) was 53%.

With `Cc1c(OCC(F)(F)F)ccnc1C[S+]([O-])c1nc2ccccc2[nH]1` (stereo not drawn) [lansoprazole] the “decrease in formation of M2a” value (human hepatic microsomes [6]) was “≈ 20%” and the “effect on the aggregate amount of metabolites” value (shortened to “effect on the aggregate amount”) [4] was “negligible”.

For `C=C[C@H]1C[N@@]2CC[C@H]1C[C@@H]2[C@@H](O)c1ccnc2ccc(OC)cc12` [quinidine], the “effect on the aggregate amount” value [4] was “negligible”.

In the case of `CO[C@H]1/C=C/O[C@@]2(C)Oc3c(C)c(O)c4c(O)c(c(/C=N/N5CCN(C)CC5)c(O)c4c3C2=O)NC(=O)/C(C)=C\C=C\[C@H](C)[C@H](O)[C@@H](C)[C@@H](O)[C@@H](C)[C@H](OC(C)=O)[C@@H]1C` [rifampin], the “effect of administration on plasma levels of glyburide” value ([5]; ref [30]) is listed as “lowered plasma levels of glyburide”.

In the case of `Nc1ccc(S(=O)(=O)Nc2ccnn2-c2ccccc2)cc1` [sulfaphenazole], the “decrease in formation of M1” value (human hepatic microsomes [6]) is reported as “approximately 40%”, the “decrease in formation of M2b” value (human hepatic microsomes [6]) is reported as “approximately 40%” and the “decrease in formation of M3” value (human hepatic microsomes [6]) is reported as ≤ 20%. The “decrease in formation of M4” value (human hepatic microsomes [6]) was ≤ 20%, the “decrease in formation of M5” value (human hepatic microsomes [6]) was ≤ 20% and the “decrease in formation of M2a” value (human hepatic microsomes [6]) was “approximately 40%”. The “decrease in the aggregate (total) amount of metabolites formed” value (human hepatic microsomes [6]) was 28% and the “effect on the aggregate amount” value [4] was “negligible”.

For `O=c1cc(-c2ccccc2)oc2c1ccc1ccccc12` [α-naphthoflavone], the “inhibition of CYP19” value (CYP19) is given as “inhibitor of CYP19”.
